Assays:
[1] = Solid oral delivery of acyclovir in rats (plasma acyclovir by LC-MS-MS); assay type: in vivo, Male Sprague Dawley rats; conditions: oral tablet, acyclovir 25 mg/kg, no delivery agent
Description: An oral dosing tube was used.
Results from the animals in each group were averaged for each time point.

[2] = orally administered; cited from earlier work

For `Nc1nc2c(ncn2COCCO)c(=O)[nH]1` [Acyclovir, 9-(2-hydroxyethoxymethyl)guanine], the “Mean plasma peak of Acyclovir (ng/ml) ± SD” value [1] is given as 95.11 ± 73.75 ng/mL and the bioavailability [2] is given as 15-30%.

Reference: patent US8952017B2 (Emisphere Technologies, Inc., priority 2004, dated 2015)
